# According to article PMC11876007, “Design and Synthesis of Hydroxamate-Based Matrix Metalloproteinase-2 Inhibitors for Anti-Photoaging” (Journal of Microbiology and Biotechnology, 2025):
# “And” between values parts separate entries of the source, which are not always exact repeats. Identical values can stand only once. “Also recorded” adds a separate entry of the source.
# Experiments:
# MMP-1 = biological target: T1, MMP-1 (Homo sapiens, UniProt P03956); assay: In vitro MMP-1 inhibition assay (Abcam kit ab139443); format: biochemical; settings: for MMP-1 inhibition (in words): 500 nM, Fig. 3A
# T1 construct: purchased Abcam ab139443
# T1 sequence (P03956 100-269 limits assumed): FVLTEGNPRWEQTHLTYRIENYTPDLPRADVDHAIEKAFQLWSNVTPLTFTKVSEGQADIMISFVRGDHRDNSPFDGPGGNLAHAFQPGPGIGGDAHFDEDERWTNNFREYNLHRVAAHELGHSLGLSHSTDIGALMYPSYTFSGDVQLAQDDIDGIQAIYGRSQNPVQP
# Protocol: (§1) Test inhibitors were incubated with MMP enzymes and assay buffer at 37 °C for 30 min. Enzyme reaction was initiated by adding substrate, and MMP activity was measured by monitoring optical density (OD) at 412 nm for 20 min at 1-min intervals. The residual activity (%) was calculated as: residual activity = (Vinhibitor/Vcontrol) × 100. The reaction velocity (V) in OD/min were determined by the slope of a line fit to the linear portion of the measured values.
# NHF cells = assay: Gelatin degradation assay (fluorescent gelatin, NHF cells); format: cell-based, human; settings: 1 μM, four days, fluorescent-gelatin-coated plates
# Protocol: Gelatin digestion was assessed using the QCM™ Gelatin Invadopodia Assay (#ECM670) (Sigma-Aldrich, USA). Plates were first coated with poly-L-lysine, activated with glutaraldehyde, and then coated with fluorescein-labelled gelatin. NHF cells were seeded onto the fluorescent gelatin-coated plates and incubated for 4 days. After incubation, the cells were fixed with formaldehyde and stained with DAPI for normalization based on cell number. Fluorescent gelatin levels were measured by detecting fluorescent intensity at an excitation wavelength of 492 nm and an emission wavelength of 518 nm using a Bio Tek Synergy H1 fluorescence reader (Agilent Technologies, USA). The residual gelatin (RG) was calculated by subtracting the fluorescent value of the wells with seeded cells from the values of wells without cells. This was normalized using the DAPI fluorescence to account for cell numbers per well. Gelatin degradation (%) was determined as: Gelatin degradation = (RGinhibitor/RGcontrol) × 100.
# MMP-9 = biological target: T2, MMP-9 (Homo sapiens, UniProt P14780); assay: Zymogram assay, MMP-9 in HaCaT cell conditioned media; format: biochemical; settings: keratinocyte-conditioned media; 50 nM developing phase and 500 nM 48 h, Fig. 4B and 4D
# T2 construct: endogenous in cells; host or cells: HaCaT keratinocytes (conditioned medium)
# MMP-2 = biological target: T3, MMP-2 (Homo sapiens, UniProt P08253); assay: In vitro MMP-2 inhibition assay (Abcam kit ab139446); format: biochemical; settings: for Selectivity of inhibition, MMP-2 over MMP-1 (in words): tested at 500 nM for MMP-1 and 50 nM for MMP-2; for IC50: apparent IC50, concentration-dependent inhibition, Fig. 2B; for MMP-2 inhibition (in words): 50 nM, Fig. 3A
# T3 construct: purchased Abcam ab139446
# Protocol: as §1
# T2 sequence (P14780 94-707): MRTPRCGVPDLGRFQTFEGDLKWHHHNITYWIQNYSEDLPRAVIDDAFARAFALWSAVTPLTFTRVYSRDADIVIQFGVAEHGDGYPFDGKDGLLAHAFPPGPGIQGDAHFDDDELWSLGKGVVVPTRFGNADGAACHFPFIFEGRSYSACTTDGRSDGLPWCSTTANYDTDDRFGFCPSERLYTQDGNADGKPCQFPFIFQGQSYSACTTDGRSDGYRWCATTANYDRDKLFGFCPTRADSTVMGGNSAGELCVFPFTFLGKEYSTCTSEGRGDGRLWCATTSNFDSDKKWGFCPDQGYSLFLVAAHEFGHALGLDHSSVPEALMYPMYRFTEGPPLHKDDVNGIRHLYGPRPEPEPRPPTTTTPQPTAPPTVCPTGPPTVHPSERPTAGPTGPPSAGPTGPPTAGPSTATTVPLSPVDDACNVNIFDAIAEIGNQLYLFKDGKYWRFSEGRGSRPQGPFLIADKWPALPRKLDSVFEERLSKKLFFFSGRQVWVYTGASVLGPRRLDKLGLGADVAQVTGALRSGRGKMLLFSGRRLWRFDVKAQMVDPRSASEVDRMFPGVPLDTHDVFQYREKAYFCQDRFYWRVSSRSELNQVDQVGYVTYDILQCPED
# T3 sequence (P08253 110-465 limits assumed): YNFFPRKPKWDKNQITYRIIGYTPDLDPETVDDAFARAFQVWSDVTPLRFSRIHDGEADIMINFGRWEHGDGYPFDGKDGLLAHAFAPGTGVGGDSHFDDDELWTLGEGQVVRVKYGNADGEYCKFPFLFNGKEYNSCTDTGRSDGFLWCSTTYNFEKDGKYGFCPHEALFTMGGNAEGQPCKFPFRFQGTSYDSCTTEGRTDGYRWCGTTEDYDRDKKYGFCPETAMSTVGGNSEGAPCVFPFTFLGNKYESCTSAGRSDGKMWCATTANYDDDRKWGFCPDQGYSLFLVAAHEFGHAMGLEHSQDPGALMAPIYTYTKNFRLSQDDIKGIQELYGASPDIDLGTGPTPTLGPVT
smiles,measurement,setting,value
"O=C(NO)C1CCCCN1S(=O)(=O)c1ccccc1 (centres unmarked) [Compound 1ac, N-hydroxy-1-(phenylsulfonyl)piperidine-2-carboxamide]",MMP-1 inhibition (in words),MMP-1,maintained MMP-1 inhibition
"O=C(NO)C1CCCCN1S(=O)(=O)c1ccc(-c2ccccc2)cc1 (centres unmarked) [Compound 1ad, 1-([1,1'-biphenyl]-4-ylsulfonyl)-N-hydroxypiperidine-2-carboxamide]",Gelatin degradation per cell (in words),NHF cells,statistically significant reductions
same,"MMP-9 inhibition, zymogram (in words)",MMP-9,effectively inhibited both MMP-2 and MMP-9
"CCCCOc1ccc(S(=O)(=O)N2CCCCC2C(=O)NO)cc1 (centres unmarked) [Compound 1af, 1-((4-butoxyphenyl)sulfonyl)-N-hydroxypiperidine-2-carboxamide]",Gelatin degradation per cell (in words),NHF cells,statistically significant reductions
same,"MMP-9 inhibition, zymogram (in words)",MMP-9,effectively inhibited both MMP-2 and MMP-9
"Cc1ccc(S(=O)(=O)N2CCCCC2C(=O)NO)cc1 (centres unmarked) [Compound 1aj, N-hydroxy-1-tosylpiperidine-2-carboxamide]","Selectivity of inhibition, MMP-2 over MMP-1 (in words)",MMP-2,selective inhibition of MMP-2
"CC(C)C(NS(=O)(=O)c1ccc(-c2ccccc2)cc1)C(=O)NO (centres unmarked) [Compound 1b, 2-([1,1'-biphenyl]-4-sulfonamido)-N-hydroxy-3-methylbutanamide]",IC50,MMP-2,5.1 nM and < 10 nM
same,"Selectivity of inhibition, MMP-2 over MMP-1 (in words)",MMP-2,selectively inhibited MMP-2 over MMP-1
same,MMP-1 inhibition (in words),MMP-1,weak MMP-1 inhibition
same,IC50,"MMP-1; apparent IC50, concentration-dependent inhibition, Fig. 2B",188 nM
"CCCCOc1ccc(S(=O)(=O)NC(C(=O)NO)C(C)C)cc1 (centres unmarked) [Compound 1d, 2-((4-butoxyphenyl)sulfonamido)-N-hydroxy-3-methylbutanamide]",IC50,MMP-2,8.1 nM and < 10 nM
same,"Selectivity of inhibition, MMP-2 over MMP-1 (in words)",MMP-2,selectively inhibited MMP-2 over MMP-1; also recorded: strong selectivity for MMP-2
"CCCCOc1ccc(S(=O)(=O)NC(CC(C)C)C(=O)NO)cc1 (centres unmarked) [Compound 1j, 2-((4-butoxyphenyl)sulfonamido)-N-hydroxy-4-methylpentanamide]",IC50,MMP-2,7.8 nM and < 10 nM
same,"Selectivity of inhibition, MMP-2 over MMP-1 (in words)",MMP-2,selectively inhibited MMP-2 over MMP-1; also recorded: strong selectivity for MMP-2
"O=C(NO)C(Cc1ccccc1)NS(=O)(=O)c1ccc(-c2ccccc2)cc1 (centres unmarked) [Compound 1n, 2-([1,1'-biphenyl]-4-sulfonamido)-N-hydroxy-3-phenylpropanamide]",MMP-2 inhibition (in words),MMP-2,lower inhibitory activity against MMP-2
"CCCCOc1ccc(S(=O)(=O)NC(Cc2ccccc2)C(=O)NO)cc1 (centres unmarked) [Compound 1p, 2-((4-butoxyphenyl)sulfonamido)-N-hydroxy-3-phenylpropanamide]",MMP-2 inhibition (in words),MMP-2,lower inhibitory activity against MMP-2
"O=C(NO)C1CCCN1S(=O)(=O)c1ccc(-c2ccccc2)cc1 (centres unmarked) [Compound 1t, 1-([1,1'-biphenyl]-4-ylsulfonyl)-N-hydroxypyrrolidine-2-carboxamide]",IC50,MMP-2,18.9 nM
same,"Selectivity of inhibition, MMP-2 over MMP-1 (in words)",MMP-2,selectively inhibited MMP-2 over MMP-1
same,MMP-1 inhibition (in words),MMP-1,weaker MMP-1 inhibition
"CCCCOc1ccc(S(=O)(=O)N2CCCC2C(=O)NO)cc1 (centres unmarked) [Compound 1v, 1-((4-butoxyphenyl)sulfonyl)-N-hydroxypyrrolidine-2-carboxamide]",IC50,MMP-2,32.6 nM
same,"Selectivity of inhibition, MMP-2 over MMP-1 (in words)",MMP-2,selectively inhibited MMP-2 over MMP-1
"CC(=NO)c1ccc(S(=O)(=O)N2CCCCC2C(=O)NO)cc1 (centres unmarked) [Compound 4an, N-hydroxy-1-((4-(1-(hydroxyimino)ethyl)phenyl)sulfonyl)piperidine-2-carboxamide]",Gelatin degradation per cell (in words),NHF cells,statistically significant reductions
same,"MMP-9 inhibition, zymogram (in words)",MMP-9,effectively inhibited both MMP-2 and MMP-9
